Key:
[1] = biological target: P-gp (MDR1-MDCKII cells) (Homo sapiens, UniProt P08183); assay: Bidirectional permeability in MDR1-MDCKII cells with and without GF120918; settings: for Rank Papp: MDR1-MDCKII permeability rank
Experimental: (§1) MDR1-MDCKII cells were seeded onto […] (PET) in a 96-well insert system. Test and reference compounds were administered to the apical (A-to-B) and basolateral (B-to-A) sides of the cell monolayer. Permeation of the compounds in both directions was assessed, with and without a P-glycoprotein (P-gp) inhibitor (GF120918). […] After a 2.5-h incubation period, each compound’s permeability and efflux ratio were calculated as described in the SI. […]
(§2) Bidirectional permeability assessment in MDR1-MDCK cells. Test and reference compounds were quantified using LC -MS/MS ana lysis based on th e peak ar ea r atio of analyte to internal standard (IS). T he apparent permeability coefficient (Papp) in cm/s was computed using the equation: Pa pp = (dCr/d t ) × V r / ( A × C 0), where dCr/ d t […]
(§3) represents the cumulative concentration of the compound in the receiver chamber over time (µM/s), Vr is the solution volume in the receiver chamber (0.075 mL on the apical side, 0.25 mL on the basolateral side), A is the surface area for transport (0.0804 cm2 f or the monolayer ar ea), and C0 is the initial concentration in the donor chamber ( µM) .
(§4) The efflux ratio was determined using the equation Efflux Ratio = P a pp ( B:
(§5) A ) / Pa pp (A: B) . […]
(§6) Additionally, the percent of lucifer yellow in the basolateral well was calculated using the equation:
(§7) Lucif er yellow = VV bbbbbbbbbbbbbbbbbbbb ×RR FFFF bbbbbbbbbbbbbbbbbbbb ×100 VV bbaaaaaa bbbb ×RRRRRR bbaaaaaa bbbb+VV bbbbbbbbbbbbbbbbbbbb ×RRFFFF bbbbbbbbbbbbbbbbbbbb wher e RFUApical and RFUBasolateral demote the r elative f luor escence unit values of lucif er yellow in the apical and basolateral wells, respectively, and VApical and VBasolateral represent the volumes of apical and basolateral wells (0.075 mL and 0.25 mL, r espectively) . T he % Lucif er Yellow should be less than 2, indicating minimal leakage. […]

[2] = biological target: P-gp (MDR1) (Homo sapiens, UniProt P08183); assay: as above; settings: dog; for Papp A→B at 2.5 h: MDCK-MDR1; for recovery at 2.5 h: MDCK-MDR1, Mean recovery % A to B, without GF120918
Sequence of P-gp (MDR1) (P08183 whole entry): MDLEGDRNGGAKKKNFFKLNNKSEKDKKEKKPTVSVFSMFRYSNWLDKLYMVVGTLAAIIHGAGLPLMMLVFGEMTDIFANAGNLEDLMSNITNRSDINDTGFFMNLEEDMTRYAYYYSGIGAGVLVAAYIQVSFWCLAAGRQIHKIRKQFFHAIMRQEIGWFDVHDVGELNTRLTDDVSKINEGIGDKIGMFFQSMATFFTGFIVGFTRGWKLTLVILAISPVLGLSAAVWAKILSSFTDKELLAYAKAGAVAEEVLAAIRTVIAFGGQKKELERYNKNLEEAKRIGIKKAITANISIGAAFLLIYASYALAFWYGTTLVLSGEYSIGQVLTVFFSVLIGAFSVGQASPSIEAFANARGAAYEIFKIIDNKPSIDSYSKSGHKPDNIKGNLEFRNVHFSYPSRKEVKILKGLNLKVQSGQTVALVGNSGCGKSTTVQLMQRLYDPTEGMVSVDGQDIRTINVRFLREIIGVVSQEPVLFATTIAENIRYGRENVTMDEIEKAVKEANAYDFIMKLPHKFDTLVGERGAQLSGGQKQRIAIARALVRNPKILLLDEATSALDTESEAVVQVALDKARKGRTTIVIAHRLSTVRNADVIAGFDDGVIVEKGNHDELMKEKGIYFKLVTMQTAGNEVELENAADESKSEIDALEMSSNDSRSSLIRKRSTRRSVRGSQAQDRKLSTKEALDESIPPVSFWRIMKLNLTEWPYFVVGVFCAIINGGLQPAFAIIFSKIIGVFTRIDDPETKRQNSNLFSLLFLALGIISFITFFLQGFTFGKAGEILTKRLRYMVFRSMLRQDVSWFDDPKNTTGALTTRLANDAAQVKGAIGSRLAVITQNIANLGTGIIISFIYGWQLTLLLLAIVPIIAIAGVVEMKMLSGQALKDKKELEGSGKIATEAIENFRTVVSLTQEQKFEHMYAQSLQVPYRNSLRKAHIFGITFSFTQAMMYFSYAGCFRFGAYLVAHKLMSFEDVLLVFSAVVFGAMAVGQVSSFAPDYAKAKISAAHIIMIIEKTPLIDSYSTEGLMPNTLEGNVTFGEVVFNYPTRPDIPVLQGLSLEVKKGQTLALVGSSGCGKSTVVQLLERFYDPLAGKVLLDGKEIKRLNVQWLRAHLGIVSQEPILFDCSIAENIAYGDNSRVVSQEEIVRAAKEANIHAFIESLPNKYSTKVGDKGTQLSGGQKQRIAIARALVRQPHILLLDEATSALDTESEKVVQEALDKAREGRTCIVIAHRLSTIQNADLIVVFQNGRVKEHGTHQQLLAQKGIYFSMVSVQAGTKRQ
Experimental: as §1, §2, §3, §4, §5, §6, §7

[3] = system: HepG2 cells; assay: Cell viability assay (CellTiter Glo); type: cell-based; settings: Homo sapiens, 72 h, read-out: cell viability relative IC50
Experimental: Cell viability assay. To assess the cell viability, which indicates the toxicity of the novel compounds, a total of 3,000 HepG2 cells were seeded into a 384-well plate. The compounds were then dispensed onto the cell plate using a Tecan D300e digital dispenser. Following compound addition, 35 μL CellTiter Glo reagent was added to all wells of the assay plate, and the plate was mixed for 30 sec on an or bital shaker to lyse cells. Subsequently, the plate was incubated at room temperature for 10 minutes. The luminescence signal was measured using a 384-well plate reader (EnVision). The obtained data were analyzed using XL-fit software (ID Business Solutions Ltd., Software version: XL fit 5. 5. 0. 5). The percentage of inhibition was calculated using the […]
Inhibition (%) = (1-Sample / ZPE) ×100
Sample represents the test compound's luminesc e nce signal, and ZPE represents the luminescence signal f r om the zer o-percent enzyme control.

Sequence of P-gp (MDR1-MDCKII cells) (P08183 whole entry): as above

P-gp substrate ([1]; MDR1-MDCKII cells)	Rank Papp [1]	Mean Papp B to A ([1]; without GF120918)	Papp A→B at 2.5 h [2] [×10⁻⁶ cm/s]	recovery at 2.5 h [2] [%]	Compound	IC50 [3] [nM]
Ye s	Low	10.88 10 -6 cm/s	–	–	C[C@H]1O[C@@H](O[C@H]2[C@@H](O)C[C@H](O[C@H]3[C@@H](O)C[C@H](O[C@H]4CC[C@@]5(C)[C@H](CC[C@@H]6[C@@H]5C[C@@H](O)[C@]5(C)[C@@H](C7=CC(=O)OC7)CC[C@]65O)C4)O[C@@H]3C)O[C@@H]2C)C[C@H](O)[C@@H]1O [Digoxin, reference compound]	–
–	Hi gh	–	28.7	107	COCCc1ccc(OCC(O)CNC(C)C)cc1 (stereo not shown) [Metoprolol, reference compound]	–
–	Low	–	0.42	102	CC(C)(C)NCC(O)COc1cccc2c1CC(O)C(O)C2 (stereo not shown) [Nadolol, reference compound]	–
–	–	–	–	–	CN[C@@H]1C[C@H]2O[C@@](C)([C@@H]1OC)n1c3ccccc3c3c4c(c5c6ccccc6n2c5c31)C(=O)NC4 [Staurosporine, reference compound]	60

— PMC12067444, “Synthesis and Pharmacological Characterization of Novel Peripheral Cannabinoid-1 Receptor Blockers Based on a Tricyclic Scaffold” (Journal of Medicinal Chemistry, 2025)
